Key:
[1] = tested on: Fas; assay: Inhibition of Fas expression on Jurkat cells by cycloheximide; format: cell-based, human; details: Jurkat cells, 0.1 μg/ml cycloheximide
Procedure: (§1) Fas and FasL expression were measured by flow cytometry using anti-Fas FITC-conjugated monoclonal antibodies and anti-FasL PE-conjugated monoclonal antibodies in a FACScalibur Flow Cytometer (Becton Dickinson, San Jose, Calif., USA) using the CELLQuest program (Becton Dickinson).
(§2) Results are expressed as percentage (%) increase in the expression of Fas and of FasL measured on treated cells compared to control cells.
Jurkat human leukemia T cells were pre-incubated with 0.0 μg/ml (−CHX) or with 0.1 μg/ml of cycloheximide (+CHX) for 1 h. Ten μg/ml or 100 μg/ml of 6 base SEQ ID NO:5 (GGGTGG) was added to both the −CHX and +CHX cells and the incubation was continued for 24 hours and for 48 hours (Table 10).

[2] = tested on: EAE; assay: EAE in (SJL/J×PL/J) F1 mice induced with myelin basic protein; format: in vivo; details: for efficacy, dose dependence: 1, 10 or 100 mg/kg; for progression of EAE: sequence 1, 10 or 100 mg/kg + anti-Fas antibodies, for 3 days
Procedure: Female (SJL/J×PL/J) F1 mice are injected subcutaneously in both femoral regions with an emulsion containing 0.5 mg of myelin basic protein (MBP) mixed with complete Freund's adjuvant. After 24 h, 400 ng of Bordetella pertussis toxin is administered intraperitoneally. On the day of onset (day 0), group 1 mice receive saline, group 2 mice receive 1, 10 or 100 mg/kg of SEQ. ID NO:5, group 3 mice receive 1, 10 or 100 mg/kg of SEQ. ID NO:16, group 4 mice receive 1, 10 or 100 mg/kg of SEQ. ID NO:17, group 5 mice receive 1, 10 or 100 mg/kg of SEQ. ID NO: 18, group 6 mice receive anti-Fas antibodies, group 7 mice receive 1, 10 or 100 mg/kg of SEQ. ID NO:5 +anti-Fas antibodies, group 8 mice receive 1, 10 or 100 mg/kg of SEQ. ID NO:16 +anti-Fas antibodies, group 9 receive 1, 10 or 100 mg/kg of SEQ. ID NO:17 +anti-Fas antibodies, group 10 mice receive 1, 10 or 100 mg/kg of SEQ. ID NO: 18 +anti-Fas antibodies for 3 days by intracistemal administration (20 μg/day). In these different groups, anti-Fas antibodies are administered at any dose in the range of about 0.003 to about 0.3 mg/kg. […] The efficacy of the SEQ. ID NO:5, the SEQ. ID NO: 16 and the SEQ. ID NO: 17 is dose-dependent.

[3] = tested on: Fas; assay: Fas expression at the cell surface by flow cytometry, LNCaP cells; format: cell-based, human; details: LNCaP prostate cancer cells, 100 μg/ml sequence, 48 h, treated vs control cells
Procedure: (§3) Cancer cells and PBMCs were seeded in 6 well flat-bottom microplates and were maintained at 37° C. in a 5% CO2 atmosphere. Unless stated otherwise, 2×10^5 cells/ml were incubated for 48 h with 0 μg/ml (control) or 100 μg/ml ([…]) (treated) of the sequences.
as §1, §2
(§4) LNCaP prostate cancer cells are a TGF-beta 1 receptor negative, […], metastatic human solid tumor model.

[4] = tested on: FasL; assay: FasL expression at the cell surface by flow cytometry, UMUC-3 cells; format: cell-based, human; details: UMUC-3 bladder cancer cells, 100 μg/ml sequence, 48 h, treated vs control cells
Procedure: as §3, §1, §2
(§5) UMUC-3 bladder cancer cells are a P-glycoprotein overexpressing human cell line.

[5] = tested on: Fas; assay: Fas expression at the cell surface by flow cytometry, T-24 cells; format: cell-based, human; details: T-24 bladder cancer cells, 100 μg/ml sequence, 48 h, treated vs control cells
Procedure: as §3, §1, §2
(§6) T-24 bladder cancer cells are a p53 mutated human cell line T-24 cells (1.0×10^5 cells/ml) were incubated with the 6 base sequences shown in Table 4.

[6] = tested on: EL-4 murine T lymphoma cells; assay: EL-4 murine T lymphoma implanted in C57/BL6 lpr/lpr mice; format: in vivo; details: for efficacy, dose dependence: 1, 10 or 100 mg/kg
Procedure: EL-4 murine T lymphoma cells are implanted into C57/BL6 lpr/lpr (Fas negative mice). The mice are divided into 30 groups of 10 mice. On day 0, group 1 mice receive saline, group 2 mice receive 1, 10 or 100 mg/kg of SEQ. ID NO:5, group 3 mice receive 1, 10 or 100 mg/kg of SEQ. ID NO:16, group 4 receive 1, 10 or 100 mg/kg of SEQ. ID NO:17, group 5 mice receive 1, 10 or 100 mg/kg of SEQ. ID NO: 18, group 6 mice receive anti-Fas antibodies, group 7 mice receive 1, 10 or 100 mg/kg of SEQ. ID NO:5 +anti-Fas antibodies, group 8 mice receive 1, 10 or 100 mg/kg of SEQ. ID NO: 16 +anti-Fas antibodies, group 9 receive 1, 10 or 100 mg/kg of SEQ. ID NO:17 +anti-Fas antibodies, group 10 mice receive 1, 10 or 100 mg/kg of SEQ. ID NO:18 +anti-Fas antibodies. In these different groups, anti-Fas antibodies are administered at any dose in the range of about 0.003 to about 0.3 mg/kg. […] The efficacy of the SEQ. ID NO:5, the SEQ. ID NO: 16 and the SEQ. ID NO: 17 is dose-dependent.

[7] = tested on: Fas; assay: Fas expression at the cell surface by flow cytometry, OVCAR-3 cells; format: cell-based, human; details: OVCAR-3 ovarian cancer cells, 100 μg/ml sequence, 48 h, treated vs control cells
Procedure: as §3, §1, §2
(§7) OVCAR-3 ovarian cancer cells are a p53 mutated, p21/waf-1/Cip deleted, metastatic human solid tumor model.

[8] = tested on: FasL; assay: FasL expression at the cell surface by flow cytometry, SK-OV-3 cells; format: cell-based, human; details: SK-OV-3 ovarian cancer cells, 100 μg/ml sequence, 48 h, treated vs control cells
Procedure: as §3, §1, §2
(§8) SK-OV-3 ovarian cancer cells are a p53 mutated, p21/waf-1/Cip deleted, p15^ink4B,p16^ink4 deleted metastatic human solid tumor model.

[9] = tested on: FasL; assay: FasL expression at the cell surface by flow cytometry, Jurkat cells; format: cell-based; details: Jurkat human leukemia T cells, 100 μg/ml sequence, 48 h, treated vs control cells
Procedure: as §3, §1, §2
(§9) Jurkat human leukemia T cells are an atypical multi-drug resistant human suspension tumor cell model.

[10] = tested on: Fas; assay: Fas expression at the cell surface by flow cytometry, MCF-7 cells; format: cell-based, human; details: MCF-7 breast cancer cells, 100 μg/ml sequence, 48 h, treated vs control cells
Procedure: as §3, §1, §2
(§10) MCF-7 human breast cancer cells are a caspase-3 negative, estrogen-dependent human solid tumor model.

[11] = tested on: FasL; assay: FasL expression at the cell surface by flow cytometry, MCF-7 cells; format: cell-based, human; details: MCF-7 breast cancer cells, 100 μg/ml sequence, 48 h, treated vs control cells
Procedure: as §3, §1, §2, §10

[12] = tested on: FasL; assay: FasL expression at the cell surface by flow cytometry, OVCAR-3 cells; format: cell-based, human; details: OVCAR-3 ovarian cancer cells, 100 μg/ml sequence, 48 h, treated vs control cells
Procedure: as §3, §1, §2, §7

[13] = tested on: FasL; assay: FasL expression at the cell surface by flow cytometry, T-24 cells; format: cell-based, human; details: T-24 bladder cancer cells, 100 μg/ml sequence, 48 h, treated vs control cells
Procedure: as §3, §1, §2, §6

[14] = tested on: Fas; assay: Fas expression at the cell surface by flow cytometry, UMUC-3 cells; format: cell-based, human; details: UMUC-3 bladder cancer cells, 100 μg/ml sequence, 48 h, treated vs control cells
Procedure: as §3, §1, §2, §5

[15] = tested on: Fas; assay: Fas expression at the cell surface by flow cytometry, PBMCs; format: cell-based, human; details: 100 μg/ml sequence, 48 h, treated vs control cells
Procedure: (§11) Peripheral blood mononuclear cells (hereinafter, “PBMCs”) were isolated from human blood by Ficoll-Hypaque (Amersham Pharmacia Biotech, Baie d'Urfée, Québec, Canada) density gradient centrifugation.
as §3, §1, §2

[16] = tested on: FasL; assay: FasL expression at the cell surface by flow cytometry, LNCaP cells; format: cell-based, human; details: LNCaP prostate cancer cells, 100 μg/ml sequence, 48 h, treated vs control cells
Procedure: as §3, §1, §2, §4

[17] = tested on: FasL; assay: FasL expression at the cell surface by flow cytometry, PBMCs; format: cell-based, human; details: 100 μg/ml sequence, 48 h, treated vs control cells
Procedure: as §11, §3, §1, §2

[18] = tested on: Fas; assay: Fas expression at the cell surface by flow cytometry, Jurkat cells; format: cell-based; details: Jurkat human leukemia T cells, 100 μg/ml sequence, 48 h, treated vs control cells
Procedure: as §3, §1, §2, §9

[19] = tested on: Fas; assay: Fas expression at the cell surface by flow cytometry, SK-OV-3 cells; format: cell-based, human; details: SK-OV-3 ovarian cancer cells, 100 μg/ml sequence, 48 h, treated vs control cells
Procedure: as §3, §1, §2, §8

[20] = sequence 1, 10 or 100 mg/kg + anti-Fas antibodies, vs all other groups
[21] = single agent (sequence 1, 10 or 100 mg/kg, or anti-Fas antibodies) vs group 1 (saline)

| Molecule | efficacy, dose dependence [2] | progression of EAE [2] | % INCREASE Fas [3] [%] | % INCREASE FasL [4] [%] | % INCREASE Fas [5] [%] | tumor mass [6, 20] | tumor mass [6, 21] | % INCREASE Fas [7] [%] | % INCREASE FasL [8] [%] | % INCREASE FasL [9] [%] | % INCREASE Fas [10] [%] | % INCREASE FasL [11] [%] | % INCREASE FasL [12] [%] | % INCREASE FasL [13] [%] | % INCREASE Fas [14] [%] | % INCREASE Fas [15] [%] | % INCREASE FasL [16] [%] | % INCREASE FasL [17] [%] | % INCREASE Fas [18] [%] | % INCREASE Fas [19] [%] | other results |
| --- | --- | --- | --- | --- | --- | --- | --- | --- | --- | --- | --- | --- | --- | --- | --- | --- | --- | --- | --- | --- | --- |
| C[C@@H]1C[C@@H]([C@H](O)CC2CC(=O)NC(=O)C2)C(=O)[C@@H](C)C1 [cycloheximide, reference compound] | – | – | – | – | – | – | – | – | – | – | – | – | – | – | – | – | – | – | – | – | decrease of Fas expression by cycloheximide ([1]; with 10 μg/ml of SEQ ID NO:5, after 24 h): 92%; decrease of Fas expression by cycloheximide ([1]; with 10 μg/ml of SEQ ID NO:5, after 48 h): 44%; decrease of Fas expression by cycloheximide ([1]; with 100 μg/ml of SEQ ID NO:5, after 24 h): 65%; decrease of Fas expression by cycloheximide ([1]; with 100 μg/ml of SEQ ID NO:5, after 48 h): 23% |
| GGGGGG [SEQ ID NO:16] | dose-dependent | least progression of EAE | 6 | 10 | 35 | least tumor mass | less tumor mass | −1 | −28 | 49 | −7 | 18 | 7 | −14 | −5 | 38 | 13 | 42 | 118 | −14 | efficacy, dose dependence [6]: dose-dependent |
| GGGCGG [SEQ ID NO:18] | – | least progression of EAE | 55 | 250 | 139 | least tumor mass | less tumor mass | 65 | 42 | 356 | 165 | 322 | 142 | 205 | 72 | 523 | 126 | 850 | 208 | 29 | – |
| GGGAGG [SEQ ID NO:17] | dose-dependent | least progression of EAE | 48 | 106 | 124 | least tumor mass | less tumor mass | 49 | −16 | 91 | 127 | 194 | 59 | 75 | 39 | 266 | 55 | 356 | 77 | −6 | efficacy, dose dependence [6]: dose-dependent |
